The subject of this assay is P388 leukemia ip, CD2F1 mice, survival T/C. As to the kind of experiment: NCI In Vivo Anticancer Drug Screen. Data for tumor model P388 Leukemia (intraperitoneal) in CD2F1 (CDF1) mice. The conditions noted are these: endpoint: median survival time, higher = longer survival. In outline:
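Mice carrying the transplanted tumor received test compound or vehicle. Survival was recorded in each group, and the value is the treated-group measurement divided by that of the vehicle-treated control group.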

Setting [1] is: dose: 12.5 mg/kg/injection, schedule: Q01DX009 (ip), vehicle: saline with Tween-80.
Where [2] appears, read: dose: 25.0 mg/kg/injection, schedule: Q01DX009 (ip), vehicle: saline with Tween-80.
[3] abbreviates: dose: 100.0 mg/kg/injection, schedule: Q01DX009 (ip), vehicle: saline with Tween-80.
[4] abbreviates: dose: 200.0 mg/kg/injection, schedule: Q01DX009 (ip), vehicle: saline with Tween-80.
Where [5] appears, read: dose: 60.0 mg/kg/injection, schedule: Q01DX005 (ip), vehicle: Klucel (hydroxypropylcellulose) (HPC).
[6] abbreviates: dose: 100.0 mg/kg/injection, schedule: Q01DX001 (ip), vehicle: Klucel (hydroxypropylcellulose) (HPC).
Setting [7] is: dose: 120.0 mg/kg/injection, schedule: Q01DX005 (ip), vehicle: Klucel (hydroxypropylcellulose) (HPC).
Setting [8] is: dose: 200.0 mg/kg/injection, schedule: Q01DX001 (ip), vehicle: Klucel (hydroxypropylcellulose) (HPC).
The mark [9] stands for this setting: dose: 240.0 mg/kg/injection, schedule: Q01DX005 (ip), vehicle: Klucel (hydroxypropylcellulose) (HPC).
Where [10] appears, read: dose: 400.0 mg/kg/injection, schedule: Q01DX001 (ip), vehicle: Klucel (hydroxypropylcellulose) (HPC).
The mark [11] stands for this setting: dose: 50.0 mg/kg/injection, schedule: Q01DX005 (ip), vehicle: Klucel (hydroxypropylcellulose) (HPC).
[12] abbreviates: dose: 100.0 mg/kg/injection, schedule: Q01DX005 (ip), vehicle: Klucel (hydroxypropylcellulose) (HPC).
The mark [13] stands for this setting: dose: 200.0 mg/kg/injection, schedule: Q01DX005 (ip), vehicle: Klucel (hydroxypropylcellulose) (HPC).
The mark [14] stands for this setting: dose: 50.0 mg/kg/injection, schedule: Q04DX002 (ip), vehicle: Klucel (hydroxypropylcellulose) (HPC).
[15] abbreviates: dose: 100.0 mg/kg/injection, schedule: Q04DX002 (ip), vehicle: Klucel (hydroxypropylcellulose) (HPC).
The mark [16] stands for this setting: dose: 50.0 mg/kg/injection, schedule: Q01DX009 (ip), vehicle: saline with Tween-80.

“And” between values parts separate entries of the source, which are not always exact repeats. Equal entries are not always repeated. Inconclusive results and toxic doses are left out.

For `Cc1cc(C(=O)N/N=C/c2ccccc2O)c2cc(Br)ccc2n1`, the T/C runs as follows: under setting [1], 88 % of control; under setting [2], 92 % of control; under setting [3], 98 % of control; under setting [4], 97 % of control.

In the case of `CN(C)CCN1C(=O)c2cccc3cc(N)cc(c23)C1=O`, the T/C is, setting by setting: (dose: 2.0 mg/kg/injection, schedule: Q01DX009 (ip), vehicle: saline with Tween-80) 111 % of control; (dose: 8.0 mg/kg/injection, schedule: Q01DX009 (ip), vehicle: saline with Tween-80) 176 % of control.

Take `NC(=O)c1c(Cl)nc2n1CCS2`: the T/C is 94 % of control under setting [5]; 107 % of control under setting [6]; 95 % of control under setting [7]; 100 % of control under setting [8]; 88 % of control under setting [9]; 109 % of control under setting [10].

With `O=C1CC[C@@H]2N1CC2(O)c1ccccc1` (mixture of isomers), the T/C was 96 % of control under setting [11], 93 % of control under setting [12] and 93 % of control under setting [13].

Regarding `COC(C)C(NC=O)C(=O)O` (centres undefined), the T/C (dose: 50.0 mg/kg/injection, schedule: Q01DX005 (ip), vehicle: saline) was 100 % of control and 99 % of control; the T/C (dose: 100.0 mg/kg/injection, schedule: Q01DX005 (ip), vehicle: saline) was 96 % of control and 98 % of control; the T/C (dose: 200.0 mg/kg/injection, schedule: Q01DX005 (ip), vehicle: saline) is 100 % of control and 91 % of control.

Regarding `CCCCCN(C)/N=N/c1nc[nH]c1C(N)=O`, the T/C by setting is: (dose: 100.0 mg/kg/injection, schedule: Q04DX003 (ip), vehicle: saline with Tween-80) 120 % of control; (dose: 200.0 mg/kg/injection, schedule: Q04DX003 (ip), vehicle: saline with Tween-80) 110 % of control; (dose: 600.0 mg/kg/injection, schedule: Q04DX003 (ip), vehicle: saline with Tween-80) 90 % of control.

As to `O=C(C(=O)C(F)(F)C(F)(F)C(F)(F)F)c1ccccc1`, the T/C runs as follows: (dose: 50.0 mg/kg/injection, schedule: Q01DX005 (ip), vehicle: saline + Tween-80 + alcohol) 102 % of control; (dose: 100.0 mg/kg/injection, schedule: Q01DX005 (ip), vehicle: saline + Tween-80 + alcohol) 97 % of control.

As to `C[C@]12Cc3cnc(N)nc3C[C@@H]1CC[C@@H]1[C@@H]2CC[C@@]2(C)[C@H]1CC[C@]2(C)O`, the T/C by setting is: (dose: 50.0 mg/kg/injection, schedule: Q01DX005 (ip), vehicle: saline with Tween-80) 99 % of control; (dose: 100.0 mg/kg/injection, schedule: Q01DX005 (ip), vehicle: saline with Tween-80) 89 % of control; (dose: 200.0 mg/kg/injection, schedule: Q01DX005 (ip), vehicle: saline with Tween-80) 89 % of control.

As for `Cc1ccc(C(=O)C2(c3ccc(C)cc3)CCCCC2)cc1`, the T/C runs as follows: under setting [14], 91 % of control; under setting [15], 90 % of control; (dose: 200.0 mg/kg/injection, schedule: Q04DX002 (ip), vehicle: Klucel (hydroxypropylcellulose) (HPC)) 95 % of control; (dose: 400.0 mg/kg/injection, schedule: Q04DX002 (ip), vehicle: Klucel (hydroxypropylcellulose) (HPC)) 91 % of control.

Turning to `CCOC(=O)CCC(Br)(Br)Br`, the T/C reads like this: (dose: 50.0 mg/kg/injection, schedule: Q01DX009 (ip), vehicle: Klucel (hydroxypropylcellulose) (HPC)) 100 % of control; (dose: 100.0 mg/kg/injection, schedule: Q01DX009 (ip), vehicle: Klucel (hydroxypropylcellulose) (HPC)) 100 % of control; (dose: 200.0 mg/kg/injection, schedule: Q01DX009 (ip), vehicle: Klucel (hydroxypropylcellulose) (HPC)) 97 % of control.

For `CC1CC(c2ccccc2)(c2ccccc2)C(=O)C(C)N1C` (centres undefined), the T/C is, setting by setting: under setting [11], 107 % of control; under setting [12], 105 % of control; under setting [13], 97 % of control.

For the molecule `CC(=O)Oc1ccc(OC(C)=O)c(CBr)c1CBr`, the T/C runs as follows: (dose: 25.0 mg/kg/injection, schedule: Q04DX002 (ip), vehicle: Klucel (hydroxypropylcellulose) (HPC)) 100 % of control; under setting [14], 95 % of control; under setting [15], 87 % of control and 93 % of control.

As to `CCC1=CC2CN(CCc3c([nH]c4ccccc34)C(C(=O)OC)(c3cc4c(cc3OC)N(C)C3C(O)(C(=O)OC)C(OC(C)=O)C5(CC)CCCN6CCC43C65)C2)C1` (centres undefined), the T/C is 95 % of control (dose: 0.06 mg/kg/injection, schedule: Q01DX009 (ip), vehicle: water); 94 % of control (dose: 0.13 mg/kg/injection, schedule: Q01DX009 (ip), vehicle: water); 94 % of control (dose: 0.25 mg/kg/injection, schedule: Q01DX009 (ip), vehicle: water); 90 % of control (dose: 0.5 mg/kg/injection, schedule: Q01DX009 (ip), vehicle: water); 100 % of control and 115 % of control (dose: 1.0 mg/kg/injection, schedule: Q01DX001 (ip), vehicle: water); 90 % of control (dose: 1.0 mg/kg/injection, schedule: Q01DX009 (ip), vehicle: water). For the same molecule, the T/C runs as follows: (dose: 2.0 mg/kg/injection, schedule: Q01DX001 (ip), vehicle: water) 107 % of control and 100 % of control; (dose: 2.0 mg/kg/injection, schedule: Q01DX009 (ip), vehicle: water) 106 % of control and 110 % of control; (dose: 4.0 mg/kg/injection, schedule: Q01DX001 (ip), vehicle: water) 110 % of control and 108 % of control; (dose: 4.0 mg/kg/injection, schedule: Q01DX009 (ip), vehicle: water) 109 % of control and 111 % of control; (dose: 8.0 mg/kg/injection, schedule: Q01DX001 (ip), vehicle: water) 119 % of control and 109 % of control and 115 % of control; (dose: 8.0 mg/kg/injection, schedule: Q01DX009 (ip), vehicle: water) 122 % of control. The T/C is 122 % of control and 112 % of control and 116 % of control (dose: 16.0 mg/kg/injection, schedule: Q01DX001 (ip), vehicle: water); 122 % of control and 115 % of control and 119 % of control (dose: 32.0 mg/kg/injection, schedule: Q01DX001 (ip), vehicle: water).

As for `ClCc1nnc2cccc(Cl)n12`, the T/C runs as follows: under setting [6], 102 % of control; under setting [8], 96 % of control; under setting [10], 99 % of control.

In the case of `CCOC(=O)C(F)C(Br)C(=O)OCC` (centres undefined), the T/C by setting is: under setting [2], 105 % of control and 120 % of control; under setting [16], 117 % of control; under setting [3], 123 % of control.

Take `CCOC(=O)C12C=CC(=O)NC1(OC)OC(C)(C)C2` (centres undefined): the T/C by setting is: (dose: 20.0 mg/kg/injection, schedule: Q01DX001 (ip), vehicle: Klucel (hydroxypropylcellulose) (HPC)) 95 % of control; (dose: 40.0 mg/kg/injection, schedule: Q01DX001 (ip), vehicle: Klucel (hydroxypropylcellulose) (HPC)) 93 % of control; (dose: 80.0 mg/kg/injection, schedule: Q01DX001 (ip), vehicle: Klucel (hydroxypropylcellulose) (HPC)) 89 % of control.

Consider `CC(C)(C)c1ccc(N)c(C(O)(C(F)(F)F)C(F)(F)F)c1`, for which the T/C (dose: 30.0 mg/kg/injection, schedule: Q01DX005 (ip), vehicle: saline with Tween-80) was 100 % of control and 90 % of control.

`Oc1c(CN2CCCCC2)ccc2cccnc12`: the T/C is, setting by setting: (dose: 0.78 mg/kg/injection, schedule: Q01DX009 (ip), vehicle: saline with Tween-80) 107 % of control and 92 % of control; (dose: 1.56 mg/kg/injection, schedule: Q01DX009 (ip), vehicle: saline with Tween-80) 99 % of control and 97 % of control; (dose: 3.12 mg/kg/injection, schedule: Q01DX009 (ip), vehicle: saline with Tween-80) 107 % of control; (dose: 6.25 mg/kg/injection, schedule: Q01DX009 (ip), vehicle: saline with Tween-80) 99 % of control and 110 % of control and 122 % of control; under setting [1], 99 % of control and 106 % of control and 108 % of control; under setting [2], 113 % of control. In addition, under setting [16], the T/C is 113 % of control.

`Cc1ccccc1C(C)(C#N)Nc1ccccc1` (centres undefined): the T/C was 100 % of control under setting [3]; 113 % of control under setting [4]; 100 % of control (dose: 400.0 mg/kg/injection, schedule: Q01DX009 (ip), vehicle: saline with Tween-80).

Regarding `Cc1ccc(Nc2c3ccccc3nc3c2cnn3-c2ccccc2)cc1`, the T/C by setting is: under setting [5], 91 % of control; under setting [7], 90 % of control; under setting [9], 87 % of control.

With `O=C1Nc2ccccc2C1=Nc1ccc2[nH]c3ccccc3c2c1`, the T/C is, setting by setting: under setting [5], 92 % of control; under setting [7], 93 % of control; under setting [9], 88 % of control.
